Measurements taken from ChEMBL document CHEMBL3507680, “University of Dundee, Gates Library screen for HepG2 cell viability”.

Assay: Human HepG2 cell viability assay in 384 well format
Format: toxicity, cell-based
Design: dose 125 nL, time 70.5 hour; concentration not given beside the values
Conditions: HepG2 cells, read-out: Inhibition

Row | Compound | cytotoxicity at 70.5 h
1 | CC1=C(c2ccc(C)cc2)S(=O)(=O)N=C1N1CCc2ccccc21 | -5.39%
2 | COCCN1CCC2(CC1)CN(C(=O)Cc1cccnc1)CCO2 | -5.95%
3 | COc1c(C2CCCN2C(=O)c2cccc(C(N)=O)c2)c(C)nn1C (stereo not given) | 18.9%
4 | COc1ccc(C(NCc2cccc(C#N)c2)C2CC2)cc1 (stereo not given) | -2.12%
5 | c1ncn(CC2CCCN(Cc3cn4ccsc4n3)C2)n1 (stereo not given) | -5.75%
6 | CCCc1n[nH]c(=O)n1[C@@H](CC)c1ccccc1 | -10.8%
7 | Cc1csc(CCNC(=O)NC(C)Cn2cccn2)n1 (stereo not given) | 19%
8 | O=C(NCc1ccco1)[C@@]12CCO[C@@H]1CCN(CCN1CCCC1)C2 | 8.62%
9 | NC(=O)C1CN(C(=O)Nc2ccc(SC(F)(F)F)cc2)CCO1 (stereo not given) | -10.3%
10 | COc1ccc(C)cc1-n1cnnc1CC1CCNCC1 | -3.84%
11 | O=C(c1ccnnc1)N1CC[C@H]2[C@H]1CCN2S(=O)(=O)C1CC1 | -0.791%
12 | CCOc1cc(CNC(=O)CNC(=O)CC2CCCCC2)ccn1 | -6.29%
13 | COCCN(Cc1ccoc1)C(=O)c1ccccn1 | -3.55%
14 | CC(C)(C(=O)NCc1ccc(C#N)cc1)n1cc(Br)cn1 | -2.27%
15 | O=C(c1ccncc1)N1CCC(Oc2cccc(C(F)(F)F)c2)CC1 | -5.79%
16 | Cc1nc2ccccc2nc1CN1CCCC(Cn2cncn2)C1 (stereo not given) | -3.51%
17 | Cc1ccc(C(=O)NC2CCN(Cc3cccc4c3OCCO4)CC2)s1 | -2.59%
18 | COc1cc(NCc2c(C)noc2C)c(OC)cc1Cl | 10.4%
19 | N#Cc1ccc(N2CCCN(CCCn3cncn3)CC2)cc1 | -0.762%
20 | Cc1cc(C)cc(CCC(=O)NC(C)c2nnn[nH]2)c1 (stereo not given) | -2.97%
21 | CSCC(=O)N(C)Cc1noc(-c2ccccc2)n1 | -9.48%
22 | O=C(c1sccc1Br)N(Cc1cccnc1)C1CC1 | -13.1%
23 | COCCn1cnnc1Cn1ccnc1-c1ccoc1 | 27.2%

Row | Compound | cytotoxicity at 70.5 h
24 | Cn1cc(CN2CCCn3cnc(COCC4CC4)c3C2)cn1 | -12.6%
25 | c1csc(CN2CCCn3cnc(COCC4CC4)c3C2)n1 | -0.793%
26 | CC[C@H]1COCCN1C(=O)c1ccc(OC)c(N2CCOCC2)c1 | -10.3%
27 | CC(=O)N1CCOC(c2c(C(=O)NCCN(C)C)sc3ccccc23)C1 (stereo not given) | -7.61%
28 | Cc1nnc2n1CCN(C(C(=O)NC1CC1)c1ccccc1)C2 (stereo not given) | -10.2%
29 | O=C1OCCC1N1CCN(C(=O)Cc2ccccc2Cl)CC1 (stereo not given) | -0.257%
30 | CC(=O)N1CCc2nc(C3CCN(c4ncccn4)C3)ncc2C1 (stereo not given) | -0.395%
31 | CC(C)c1nccc([C@@H]2C[C@@H]3CCN(Cc4ccco4)C[C@H]3O2)n1 | 38.3%
32 | CS(=O)(=O)Cc1cccc(C(=O)NCC2Cc3ccccc3O2)c1 (stereo not given) | -3.94%
33 | CC(CO)(CO)NC(=O)C1CCC(=O)N(Cc2ccc(Cl)cc2)C1 (stereo not given) | -2.86%
34 | Cc1ccc2nc(C)c(C)c(C(=O)N3CCN(c4nccs4)CC3)c2c1 | -7.96%
35 | Oc1cc(-c2ccsc2)nc(C2CCN(Cc3cccnc3)CC2)n1 | -5.93%
36 | CC(C)CCN1CCC2(CC1)NCc1ccccc1NC2=O | -7.94%
37 | COc1ccnc(N2C[C@@H]3CC[C@H](C2)N(CC2CCC2)C3=O)n1 | -0.827%
38 | COCC1CC2(CCN(CC3CC3)CC2)CN1Cc1ccccn1 (stereo not given) | -2.19%
39 | COc1ccc(S(=O)(=O)NCCCc2ccc(N(C)C)cc2)cc1F | -1.57%
40 | CCS(=O)(=O)N1CCC(NC(=O)c2cc3ccccc3cc2O)CC1 | 12.9%
41 | CC(=O)N1CCN(C(=O)Cc2cnc(-c3c(Cl)cccc3Cl)s2)CC1 | -13.6%
42 | Cc1cnc(N(C)CCCc2cnn(C)c2)nc1N(C)C | 14.8%
43 | CCc1nnc2n1CCN(C(=O)c1ccnc(N(C)C)c1)C2 | -2.04%
44 | N[C@H]1CN(S(=O)(=O)N2CCCC2)C[C@@H]1c1ccccc1 | -4.68%
45 | N#Cc1cccnc1N1CCN(C(=O)CCC(=O)c2cccs2)CC1 | 14.6%
46 | Cc1noc(C)c1CN(C)C(=O)c1nc(N2CCCC2)ncc1Cl | -11.7%

Row | Compound | cytotoxicity at 70.5 h
47 | COc1ccc(N2CCN(C(=O)OC(C)(C)C)C(C(=O)O)C2)cc1 (stereo not given) | -0.702%
48 | O=S1(=O)N=C(CSCc2ccccc2)Nc2ccccc21 | -3.64%
49 | CCc1csc(CNC(=O)C(CC)n2cccn2)n1 (stereo not given) | -2.46%
50 | N#Cc1ccc(CNCCc2cc(F)cc3c2OCOC3)cc1 | 7.73%
51 | COc1ccc(C2=CCN(C(=O)C3CCN(C)C(=O)C3)CC2)cc1 (stereo not given) | -8.88%
52 | COCCC(=O)N1CCC2(CC1)CN(C(C)=O)Cc1ccccc1O2 | 0.622%
53 | Cc1cccnc1N1CC2(CCN(Cc3cnn(C)c3)C2)C1 | -10.7%
54 | O=C(NCc1nc(C2CC2)no1)N1CCOC(c2ccccc2F)C1 (stereo not given) | -3.4%
55 | CCOc1ccc(C#N)cc1NCC(=O)Nc1cc(F)ccc1F | 6.71%
56 | Cc1cccc(C(=O)N2CCC(C(=O)c3cc(F)ccc3F)CC2)n1 | -7.52%
57 | O=C(NCC1CC1)C1CCC2(CCNCC2)C1 (stereo not given) | -2.15%
58 | Cc1cc(-c2nc(-c3ccccn3)nn2C2CCN(C)CC2)nc(C)n1 | -3.28%
59 | O=C1C[C@H]2CC[C@@H](CN1)N2C1CSCCSC1 | 17.4%
60 | Cc1nnc(SCC(=O)Nc2csc3nc(=O)c(C)nn23)s1 | 7.9%
61 | O=C(NCCC(O)c1ccco1)c1ccco1 (stereo not given) | -5.28%
62 | O=C(c1ncccn1)N1C[C@@H]2COC[C@]2(COc2cccnc2)C1 | -4.57%
63 | CCCOC1CCCN(C(=O)c2ccnc(N3CCN(C)CC3)c2)C1 (stereo not given) | 23%
64 | NC(=O)C(CNC(=O)Cc1ccc(F)cc1)Cc1ccc(F)cc1 (stereo not given) | -7.46%
65 | CC(Cc1cccc(F)c1)NCc1cnc(N2CCN(C)CC2)nc1 (stereo not given) | 9.92%
66 | O=C(NCCCn1cccn1)N1CCCC1c1cccs1 (stereo not given) | -7.95%
67 | O=C(Cc1cccs1)NCC1COCc2c(-c3ccoc3)nnn2C1 (stereo not given) | -9.17%
68 | Cn1cnnc1C1CCCN(C(=O)NCCc2ccccc2F)C1 (stereo not given) | -11.6%
69 | OC1(CNc2cccc(F)c2)CCNCC1 | -3.17%

Row | Compound | cytotoxicity at 70.5 h
70 | CN(C)C(=O)COC[C@]12COC[C@H]1CN(Cc1ccoc1)C2 | -6.16%
71 | CCCOc1ccc(Cl)cc1C(=O)N1CCC(n2cncn2)CC1 | 17.2%
72 | Cc1nc2c(c(N3CCC(O)(Cn4ccnc4)CC3)n1)CCNCC2 | -1.99%
73 | Cc1ccccc1CN1CCN(c2ncnc3c2NC(=O)CN3)CC1 | -8.36%
74 | O=C1N(Cc2ccc(F)c(F)c2)CCCC1(O)CNCc1ncc[nH]1 (stereo not given) | -1.39%
75 | CNC(=O)CN1CCC(CN(C)Cc2ccc(C)cc2C)CC1 | 27.9%
76 | COc1cc(-c2cnnc(NCCCOC(C)C)n2)cc(OC)c1OC | 6.95%
77 | CC(C)NS(=O)(=O)c1cc(C(=O)O)cc(-c2ccccc2CO)c1 | -3.6%
78 | Cc1cnc(CN(C)C2CCN(Cc3sc(C)nc3C)C2)o1 (stereo not given) | 29.7%
79 | Cc1ccc(CN(CCN(C)C)C(=O)Nc2cnn(C)c2)s1 | -7.54%
80 | Cc1cc(OCC(=O)N2CCCC(c3nccs3)C2)no1 (stereo not given) | -2.96%
81 | CC(C)(C)C(=O)NCCC(=O)N1CCC(Nc2cccnn2)CC1 | -0.84%
82 | Cc1nc(O)c2nnn(C[C@H]3CCCN3C(=O)CCC3CCCC3)c2n1 | 5.57%
83 | CCS(=O)(=O)N1CCC2(CC1)CC(COC)N(c1ncccn1)C2 (stereo not given) | 2.68%
84 | Cc1cccc(COc2ccc(C(C)NS(N)(=O)=O)cc2)c1 (stereo not given) | -8.27%
85 | CCC(CO)N(Cc1ccsc1)Cc1cccc(O)c1 (stereo not given) | -0.682%
86 | CC(=O)NCCCNCc1c(C)nn(CC(C)C)c1N(C)C | -5.4%
87 | Cc1ccc(NC2CCN(C(=O)CN(C)C3CC3)CC2)nn1 | -1.46%
88 | NC(=O)CN1CCCN(C(=O)Cc2ccc3c(c2)OCCO3)CC1 | -11%
89 | CN(Cc1coc(-c2ccccc2)n1)C1CCCN(c2cccnn2)C1 (stereo not given) | -7.45%
90 | CC1(C)OCC(CNC(=O)c2cnn(-c3ccc(Cl)cc3)c2N)O1 (stereo not given) | 7.47%
91 | Cc1ccccc1C(C(=O)NCCS(C)(=O)=O)N(C)C (stereo not given) | -14.5%
92 | N#Cc1cn(C2CC2)c(=O)n(Cc2ncc(-c3cccs3)o2)c1=O | -13%

Row | Compound | cytotoxicity at 70.5 h
93 | Cc1nc2n(n1)CC(Nc1ncnc3c1CCC3)CC2 (stereo not given) | -10.2%
94 | Cn1nc(C2CCCN(C(=O)Cc3ccsc3)C2)c2nccnc21 (stereo not given) | -9.48%
95 | CCS(=O)(=O)N1CCC(c2nn(CCN(C)C)c3ncccc23)C1 (stereo not given) | -1.3%
96 | CC(C)CC(C#N)NC(=O)c1ccc(Oc2cccnc2)cc1 (stereo not given) | -5.49%
97 | CC(C)C(=O)NC1COC2(CCN(Cc3cccnc3)CC2)C1 (stereo not given) | -10.3%
98 | Cc1nc(C(=O)N2CCCC2c2c(C)nn(C)c2C)cs1 (stereo not given) | -3.9%
99 | Cc1ccc(CN2CCOCC2c2[nH]ncc2C)cn1 (stereo not given) | -7.81%
100 | O=C(Cc1ccsc1)N1CCc2ncc(Cn3cccn3)n2CC1 | -13.8%
101 | CN(Cc1ccco1)C1CCC12CCN(C(=O)N1CCCC1)CC2 (stereo not given) | -7.66%
102 | CCc1nc(N)nc(NCCC(=O)N2CCCC2)c1C | 23.5%
103 | COc1ccc(F)cc1C(C(=O)O)N1CCSCC1 (stereo not given) | -7.69%
104 | Cc1nc(O)cc(C2CCCN(C(=O)COCc3ccccc3)C2)n1 (stereo not given) | 1.06%
105 | CCC(C)(C)NC(=O)COC(=O)c1cc(C)ccc1NC(=O)N(C)C | -7.98%
106 | CS(=O)(=O)NCC1CCCCN1C(=O)Nc1cccnc1N1CCCC1 (stereo not given) | 39.8%
107 | CC(=O)N1CCCn2nc(CNS(=O)(=O)N3CCC(C)CC3)cc2C1 | -11.6%
108 | Cc1ccc(-c2noc(CN3CCC(c4ccn[nH]4)CC3)n2)cc1 | 0.504%
109 | CCc1cc(C(=O)N2CCC(c3cc4ncccc4cn3)CC2)on1 | -0.772%
110 | Cc1cnn(CC2CCCCN2CCCS(N)(=O)=O)c1 (stereo not given) | 33.5%
111 | COc1ccc2c(c1)OCC(CNC(=O)c1ccncc1)C2 (stereo not given) | 13.9%
112 | c1ccc2c(Cc3nnc([C@H]4CCN(C5CCC5)C4)o3)c[nH]c2c1 | -6.08%
113 | Cn1nnnc1SC1CCCN(c2cccc(F)c2)C1=O (stereo not given) | 19.4%
114 | CCc1nnc(NC(=O)N(CCOC)Cc2ccc(C)o2)s1 | 14.4%
115 | COCCN1CCO[C@@H]2CN(Cc3ccc(C)s3)C[C@@H]2C1 | -2.59%
